Where two headings read alike, the source gives them in different places.
Tests used:
[1] = tested on: HIV-infected MT-4 cells; experiment: Inhibition of the HIV-induced cytopathic effect in MT-4 cells (MTT); assay type: cell-based; details: for IC50: HIV-infected MT-4 cells, MTT, OD 540 nm; for SI (selectivity index, ratio of CC50 to IC50): CC50/IC50 in MT-4 cells
Experimental: (§1) A rapid, sensitive and automated assay procedure was used for the in vitro evaluation of anti-HIV agents. An […] T4-cell line, MT-4, which was previously shown (Koyanagi et al., Int. J. Cancer, 36, 445-451, 1985) to be highly susceptible to and permissive for HIV infection, served as the target cell line. Inhibition of the HIV-induced cytopathic effect was used as the end point. The viability of both HIV- and mock-infected cells was assessed spectrophotometrically via the in situ reduction of 3-(4,5-dimethylthiazol-2-yl)-2,5-diphenyltetrazolium bromide (MTT). […] The percent protection achieved by the compound in HIV-infected cells was calculated by the following formula:
(§2) [formula] whereby (ODT)HIV is the optical density measured with a given concentration of the test compound in HIV-infected cells; (ODC)HIV is the optical density measured for the control untreated HIV-infected cells; (ODC)MOCK is the optical density measured for the control untreated mock-infected cells; all optical density values were determined at 540 nm. […] The ratio of CC50 to IC50 was defined as the selectivity index (SI).

[2] = tested on: mock-infected MT-4 cells; experiment: Cytotoxicity in mock-infected MT-4 cells (MTT); assay type: cell-based; details: read-out: CC50 (50% cytotoxic concentration), OD 540 nm
Experimental: as §1, §2

[3] = Cytotoxicity in mock-infected MT-4 cells (MTT); assay type: cell-based; details: human, OD 540 nm
Experimental: as §1, §2

[4] = read-out: IC50 (50% inhibitory concentration; dose achieving 50% protection)
[5] = Human immunodeficiency virus 1, MT4, read-out: IC50 (50% inhibitory concentration; dose achieving 50% protection)

Row | Compound | IC50 [1, 4] [nM] | CC50 [2] [nM] | SI (selectivity index, ratio of CC50 to IC50) [1] | IC50 [1, 5] [nM] | CC50 [3] [nM] | melting point [°C]
1 | Cc1cc(C)c(Oc2nc(Nc3ccc(C#N)cc3)nc(C(N)=O)n2)c(C)c1 [Compound 26] | 1 | 2000 | – | – | – | –
2 | N#Cc1ccc(Nc2nc(Cl)nc(Nc3c(Cl)cc(Cl)cc3Cl)n2)cc1 [Compound 85] | 20 | 50100 | – | – | – | –
3 | Cc1cc(C)c(Oc2cc(C(F)(F)F)nc(Nc3ccc(C#N)cc3)n2)c(C)c1 [Compound 25] | 79 | > 100000 | – | – | – | –
4 | COCc1cc(Oc2c(Br)cc(C#N)cc2Br)nc(Nc2ccc(C#N)cc2)n1 [Compound 27] | 10 | > 10000 | – | – | – | –
5 | CSc1nc(Nc2ccc(C#N)cc2)nc(Nc2c(C)cc(C)cc2C)n1 [Compound 20] | 2 | 3980 | – | – | – | –
6 | Cc1cc(Cl)cc(Cl)c1Nc1nc(Cl)nc(Nc2ccc(C#N)cc2)n1 [Compound 109] | 3.98 | 12600 | – | – | – | –
7 | N#Cc1ccc(Nc2nc(Cc3c(Cl)cccc3Cl)nc(N3C(=O)CCC3=O)n2)cc1 [Compound 48] | 7.9 | > 200000 | – | – | – | –
8 | N#Cc1ccc(Nc2nc(Cc3c(Cl)cccc3Cl)nc(C(N)=O)n2)cc1 [Compound 38] | – | – | >39841 | 2.51 | > 100000 | 262 to 263
9 | Cc1cc(C#N)cc(C)c1Nc1cc(C(F)(F)F)nc(Nc2ccc(C#N)cc2)n1 [Compound 33, 4-[[[6-trifluoromethyl-2-(4-cyanophenylamino)]-4-pyrimidinyl]amino]-3,5-dimethylbenzonitrile] | – | – | 1586 | 3.16 | 5010 | 249 to 251
10 | CCOc1nc(Cc2c(Cl)cccc2Cl)nc(Nc2ccc(C#N)cc2)n1 [Compound 58] | 25.1 | 50100 | – | – | – | –
11 | N#Cc1ccc(Nc2nc(Cc3c(Cl)cccc3Cl)nc(N3C(=O)COCC3=O)n2)cc1 [Compound 4] | – | – | 25197 | 1.58 | 39800 | 268 to 269

Source: patent US7276510B2, “HIV replication inhibitors” (Janssen Pharmaceutica, Inc., priority 2000, dated 2007)
